Values quoted from earlier work, collected in PMC10090446, “Population pharmacokinetic analysis and dosing optimization of polymyxin B in critically ill patients” (Frontiers in Pharmacology, 2023).
Read-outs that look alike come from different tables or passages of the source. Positions of bridges follow the written chain, without caps; N, C: chain ends. Non-standard residues stand in square brackets, D forms with d. Residues, ends and D or L forms follow the SMILES beside them. *: point of attachment. X1 = CC[C@H](C)CCCCC(=O)*; Dab = NCC[C@H](N)C(=O)O

Columns and labels:
[1] = critically ill patients; ref Ye et al., 2022; cited from earlier work
From the text: Over the last decade, more pathogenic bacteria have developed resistance, making many first-line antibiotics ineffective against infections ([Mohapatra et al., 2021]). Polymyxins were used extensively as salvage therapeutic agents for combating multidrug-resistant gram-negative bacteria (MDR-GNB) infections ([Falagas et al., 2021]). […] These specific physiolog ...

[2] = used to convert fAUC/MIC target; ref Sandri et al., 2013; cited from earlier work
Experimental: Combined with population PK/PD feature parameters of antibiotics medicines, the PTA of PK/PD target for a dosing regimen at a predetermined minimum inhibitory concentration (MIC) was performed by Monte Carlo simulation. According to the 2019 International Consensus Guidelines ([Tsuji et al., 2019]), the target of fAUC/MIC for polymyxins was around 20, and the unbound fraction was determined to be 0.42 ([Sandri et al., 2013]). Thus AUC/MIC ≥ 50 was set as the efficacy target, as well as the MIC range was set at 0.25–4 mg L^-1 ([Satlin et al., 2020]). Additionally, considering the nephrotoxicity ...

[3] = cited from earlier work
From the text: TABLE 5 PPK studies of polymyxin B. | column: Estimation of population parameters || Since small samples were employed in this experiment, the non-parametric population modeling algorithm has theoretical advantages over parametric methods in detecting population PK/PD subgroups and outliers ([Goutelle et al., 2022]), so the non-parametric population modeling approach was chosen for modeling in this study. The values of CL (1.24 L h^-1) and V (16.64 L) (Table 3) in this study were in line with the ranges from previous reports, including the CL range (1.2–4.2 L h^-1) ([Sandri et al., 2013]) (Table 3) and the V range (5.63–34.4 L) (Table 5). However, the CL value was lower than t ...

[4] = Acutely ill patients, n = 52, two-compartment model, ref Miglis et al. (2018)
[5] = Critically ill patients with CVVH, n = 53, two-compartment model, ref Wang et al. (2022)
[6] = Critically ill patients with/without CRRT, n = 53, two-compartment model, ref Luo et al. (2022)
[7] = Critically ill patients, n = 24, two-compartment model, ref Sandri et al. (2013)
[8] = Health Volunteers, n = 20, three-compartment model, ref Liu et al. (2021)
[9] = Patients with MDR-GNB infections, n = 46, two-compartment model, ref Wang et al. (2020)
[10] = Patients with/without ECMO, n = 13, non-compartment model, ref Surovoy et al. (2022)

For `CC[C@H](C)CCCCC(=O)N[C@@H](CCN)C(=O)N[C@H](C(=O)N[C@@H](CCN)C(=O)N[C@H]1CCNC(=O)[C@H]([C@@H](C)O)NC(=O)[C@H](CCN)NC(=O)[C@H](CCN)NC(=O)[C@H](CC(C)C)NC(=O)[C@@H](Cc2ccccc2)NC(=O)[C@H](CCN)NC1=O)[C@@H](C)O` [polymyxin B] (X1-[Dab]T[Dab][Dab][Dab][dF]L[Dab][Dab]T; lactam 4-C), the “rate of reaching the standard polymyxin B exposure AUC at a typical clinical dose” value [1] is given as “approximately 54.3%”, the unbound fraction [2] is given as 0.42 and the CL ([3]; Acutely ill patients, n = 52, 156 samples, two-compartment model, ref Miglis et al. (2018)) is given as 2.63 L/h. For the same compound, the Q [3, 4] was 2.32 L/h, the V1 [3, 4] was 33.8 L and the V2 [3, 4] was 78.2 L. The CL ([3]; Clinical Samples, n = 43, 134 samples, one-compartment model, ref Kubin et al. (2018)) was 2.37 L/h, the V ([3]; Clinical Samples, n = 43, one-compartment model, ref Kubin et al. (2018)) was 34.4 L and the CLCRRT ([3]; Critically ill patients undergoing CRRT, n = 53 with/without CRRT, two-compartment model, ref Luo et al. (2022)) was 1.95 L/h. For the same compound, the CL ([3]; Critically ill patients with CVVH, n = 53, 275 samples, two-compartment model, ref Wang et al. (2022)) was 1.95 L/h, the CLCVVH [3, 5] was 4.52 L/h and the Q [3, 5] was 2.28 L/h. The V [3, 5] was 15.0 L, the V2 [3, 5] was 6.54 L and the CLwithoutCRRT ([3]; Critically ill patients with/without CRRT, n = 53, 189 samples, two-compartment model, ref Luo et al. (2022)) was 1.5 L/h. For the same compound, the Q [3, 6] was 1.34 L/h, the V [3, 6] was 11.7 L and the V2 [3, 6] was 17.9 L. For the same compound, the CL ([3]; Critically ill patients, n = 24, 100 samples, two-compartment model, ref Sandri et al. (2013)) was 1.66 L/h, the Q [3, 7] was 8.76 L/h and the V1 [3, 7] was 5.63 L. The V2 [3, 7] was 19.8 L, the CL [3, 8] was 1.62 L/h and the Q2 [3, 8] was 8.4 L/h. The Q3 [3, 8] was 0.384 L/h, the V [3, 8] was 4.26 L and the V2 [3, 8] was 3.66 L. The V3 [3, 8] was 2.7 L, the CL ([3]; Individuals with severe infections, n = 35, 139 samples, one-compartment model, ref Manchandani et al. (2018)) was 2.5 L/h and the V ([3]; Individuals with severe infections, n = 35, one-compartment model, ref Manchandani et al. (2018)) was 34.3 L. For the same compound, the CL ([3]; Patients with MDR-GNB infections, n = 46, 331 samples, two-compartment model, ref Wang et al. (2020)) was 1.786 L/h, the Q [3, 9] was 13.518 L/h and the V1 [3, 9] was 6.218 L. The V2 [3, 9] was 11.922 L, the CL ([3]; Patients with TDM, n = 32, 112 samples, one-compartment model, ref Yu et al. (2021)) was 1.59 L/h and the V ([3]; Patients with TDM, n = 32, one-compartment model, ref Yu et al. (2021)) was 20.5 L. The CL [3, 10] was 1.16 L/h, the V [3, 10] was 19.73 L and the CL ([3]; Renal transplant patients, n = 50, 151 samples, one-compartment model, ref Li et al. (2021)) was 1.18 L/h. The V ([3]; Renal transplant patients, n = 50, one-compartment model, ref Li et al. (2021)) was 12.09 L.
